Data on one molecule can be found in US7312322B1, “Genetic sequences encoding steroid and juvenile hormone receptor polypeptides and insecticidal modalities therefor” (priority 1998, dated 2007).

The assay has as its system in vitro-translated complex of the M. persicae EcR and USP polypeptides. In words: Tritiated ponasterone A filter binding assay with in vitro-translated polypeptides. The arrangement: species or system Myzus persicae. As to conditions: tritiated ponasterone A 2.2 nM, 90 min, room temperature; complex versus USP or EcR polypeptide alone (FIG. 4). On the procedure:
In vitro-translated Myzus persicae EcR (MpEcR) polypeptide and an in vitro-translated M. persicae USP (MpUSP) polypeptide were produced labelled with [^35S]Methionine, using the Promega TNT-Coupled Reticulocyte Lysate System. Each batch of lysate contained 100-200 mg/ml of endogenous proteins (using BSA as a standard). The products were analysed by SDS-PAGE and radioautography. The results confirmed that the cloned cDNAs encode proteins of the sizes predicted from the length of putative open reading frames of the cDNAs present in plasmids pMpEcR and pMPUSP. The yields of EcR and USP were similar as assessed by SDS-PAGE.
In functional assays, DNA plasmids pMpEcR (AGAL Accession No. NM99/04567; […]) or pMpUSP (AGAL Accession No. NM99/04568; […]), which have been constructed using the vector pBK-CMV, and […] of appropriate TNT RNA Polymerase were added to […] of reaction mix which contained TNT Lysate, TNT Reaction Buffer, amino acid mixture, Rnasin Ribonuclease Inhibitor and nuclease-free water in volumes specified in the manufactureFS protocol. […]
After thawing the translation products, […] aliquots of the reaction mixture containing M. persicae EcR and USP polypeptides were combined to promote formation of the EcR/USP complex. […] The receptor bound ligand was quantified using a TriCarb 2100TR scintillation counter.

Turning to `CC(C)CC[C@@H](O)[C@](C)(O)[C@H]1CC[C@@]2(O)C3=CC(=O)[C@@H]4C[C@@H](O)[C@@H](O)C[C@]4(C)[C@H]3CC[C@]12C` [PNA, ponasterone A], the “amount of ligand bound to EcR/USP complex” value is recorded as “significantly higher amounts”.
